11 compounds from ChEMBL document CHEMBL1201862, “PubChem BioAssay data set” (2004) can be followed below.

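Protocol summary: plate cells (96-well), add compound at 5 concentrations, incubate 48 h, interpolate endpoints linearly. GI50 = concentration required for 50% inhibition of growth.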 Activity calls are given as the source filed them. Cut-off read from the data, not from the text of the source: active = GI50 up to about 1.1 µM and inactive = higher.

Common to all, as to experiment: growth of human tumour cells (NCI), 48 h
The test system of assay [1] is HCT-15.
For assay [2], the system named is MDA-MB-435.
The subject of assay [3] is UACC-62.
For assay [4], the system named is LOX IMVI.
The subject of assay [5] is EKVX.
Assay [6] relates to HT-29.
Assay [7] relates to SNB-19.
For assay [8], the system named is OVCAR-3.
Assay [9] deals with OVCAR-8.
Assay [10] concerns SF-295.
The test system of assay [11] is SF-268.
In assay [12] the test system is M14.
Assay [13] relates to DU-145.
In assay [14] the test system is MCF7.
Assay [15] concerns U-251.
Assay [16] concerns Malme-3M.
In assay [17] the test system is SN12C.
The test system of assay [18] is UO-31.
Assay [19] has as its system HOP-92.
Assay [20] relates to SNB-75.

As for `COC(=O)C1=C(C(=O)OC)SC2(S1)C1=C(CCC1)SC(C(=O)OC)=C2C(=O)OC`, the GI50 is 6.08 µM in assay [1]; 12.9 µM (inactive) in assay [2]; 15 µM (inactive) in assay [3]; 3.33 µM (inactive) in assay [4]; 14.9 µM (inactive) in assay [5]; 4.58 µM (inactive) in assay [6]. Besides, the GI50 in [7] is 19.6 µM (inactive); in assay [8] it was 12.2 µM (inactive); in [9], 10.2 µM (inactive); in [10] it was 15.6 µM (inactive); in assay [11], 15.5 µM (inactive); in assay [12], 18.3 µM (inactive). In addition, the GI50 in assay [13] is 4.4 µM (inactive); in assay [14], 4.33 µM (inactive); in assay [15] it was 15.6 µM (inactive); in [16] it was 17.9 µM (inactive); in [17] it was 10.7 µM (inactive); in [18], 10.8 µM (inactive). Further, the GI50 in assay [19] is 10.2 µM (inactive).

On to `COc1ccc2c(c1)CC[C@@H]1[C@@H]2CC[C@]2(C)C(=O)/C(=C/c3ccc(O)c(OC)c3)C[C@@H]12`, for which the GI50 in assay [1] was 28.3 µM; in assay [2], 32 µM (inactive); in assay [3], 68.5 µM (inactive); in assay [4], 36.9 µM (inactive); in assay [5] it was 45.8 µM (inactive); in [6] it was 51.8 µM (inactive). For the same compound, the GI50 in assay [7] was > 100 µM (inactive); in assay [8], > 100 µM (inactive); in [9], 91.8 µM (inactive); in [10], 55.6 µM (inactive); in [12] it was 35.6 µM (inactive); in assay [13], 92.9 µM (inactive). Further, the GI50 in assay [14] was 60.4 µM (inactive); in assay [15] it was 51.3 µM (inactive); in [18], 71 µM (inactive); in assay [19], > 100 µM (inactive).

On to `Cc1ccnc(NC(=S)Nc2ccccc2Cl)c1`, for which the GI50 in [1] is above 100 µM; in [2], > 100 µM (inactive); in assay [3] it was 63.1 µM (inactive); in [4] it was > 100 µM (inactive); in [5] it was 40.1 µM (inactive); in assay [6] it was > 100 µM (inactive). For the same compound, the GI50 in assay [20] is 13 µM (inactive); in assay [7] it was > 100 µM (inactive); in assay [8], > 100 µM (inactive); in assay [9], 77.8 µM (inactive); in assay [10] it was 87.7 µM (inactive); in [11], 33.6 µM (inactive). Also, the GI50 is > 100 µM (inactive) in assay [12]; > 100 µM (inactive) in assay [13]; > 100 µM (inactive) in [14]; > 100 µM (inactive) in [15]; 53.5 µM (inactive) in assay [16]; > 100 µM (inactive) in assay [17]. Besides, the GI50 in assay [18] is > 100 µM (inactive).

Turning to `COC1OC(C(C)O)C2OC(C)(C)OC12` (stereo not given), the GI50 in assay [1] was above 100 µM; in assay [2], > 100 µM (inactive); in assay [3], > 100 µM (inactive); in assay [4] it was > 100 µM (inactive); in assay [5], > 100 µM (inactive); in assay [6], > 100 µM (inactive). The GI50 in assay [20], in [7], in [8], in [9], in [10] and in assay [11] was > 100 µM (inactive) in each case. Moreover, the GI50 in assay [12], in [13], in assay [14], in assay [15], in assay [17] and in assay [18] was > 100 µM (inactive) throughout.

In the case of `Cc1ccc(-c2n[nH]c(=O)n2N2C(=O)c3ccccc3C2=O)cc1`, the GI50 in assay [1] is above 100 µM; in assay [2] it was > 100 µM (inactive); in assay [3], > 100 µM (inactive); in assay [4] it was > 100 µM (inactive); in assay [6], > 100 µM (inactive); in [20], > 100 µM (inactive). Besides, the GI50 in [7], in assay [8], in assay [9], in [10], in assay [11] and in assay [12] was > 100 µM (inactive) each time. For the same compound, the GI50 in [13], in [14], in assay [15], in assay [16], in assay [17] and in [18] was > 100 µM (inactive) each time.

For the compound `O=C(Nc1ccccc1)N1CC(CN2CCN(c3ccccc3)CC2)OC1=O` (stereo not given), the GI50 in assay [1] is above 100 µM; in [2] it was > 100 µM (inactive); in assay [3], > 100 µM (inactive); in [4], > 100 µM (inactive); in assay [5] it was > 100 µM (inactive); in assay [6] it was > 100 µM (inactive). In addition, the GI50 in assay [7], in assay [10], in assay [11], in [12], in assay [13] and in [14] was > 100 µM (inactive) in each case. The GI50 in assay [15], in [16], in assay [17], in assay [18] and in [19] was > 100 µM (inactive) throughout.

With `O=C1C[C@@]23CCC4(CC2CCC[C@H]3O1)OCCO4` (stereo not given in full), the GI50 in [1] was above 100 µM; in assay [2] it was > 100 µM (inactive); in assay [3], > 100 µM (inactive); in [4], > 100 µM (inactive); in assay [5], > 100 µM (inactive); in [6], > 100 µM (inactive). Also, the GI50 in [7], in assay [8], in assay [9], in [10], in [11] and in assay [12] was > 100 µM (inactive) throughout. Moreover, the GI50 in assay [13], in [14], in [15], in assay [16], in assay [17] and in [19] was > 100 µM (inactive) throughout.

`COC(=O)C1CC2CC1C1C2SC(F)(F)C1(F)F` (stereo not given): the GI50 in assay [1] was above 100 µM; in assay [2] it was > 100 µM (inactive); in assay [3], > 100 µM (inactive); in [4], > 100 µM (inactive); in [5], > 100 µM (inactive); in assay [20] it was > 100 µM (inactive). In addition, the GI50 in assay [7], in assay [8], in assay [9], in assay [10], in assay [11] and in assay [12] was > 100 µM (inactive) in each case. Also, the GI50 in [13], in assay [14], in [15], in assay [16], in assay [17] and in assay [18] was > 100 µM (inactive) in each case.

Regarding `CSc1c(C#N)c(=O)n(N)c2[nH]nc(C)c12`, the GI50 was above 100 µM in assay [1]; > 100 µM (inactive) in assay [2]; > 100 µM (inactive) in assay [3]; > 100 µM (inactive) in [4]; > 100 µM (inactive) in [5]; > 100 µM (inactive) in assay [6]. Besides, the GI50 in assay [20], in [7], in assay [9], in assay [11], in assay [13] and in assay [14] was > 100 µM (inactive) in each case. For the same compound, the GI50 in assay [15], in assay [16], in [17] and in [18] was > 100 µM (inactive) in each case.

With `O=C(O)CC(O)(C(=O)O)C(O)C(=O)O` (stereo not given), the GI50 in assay [1] is above 1000 µM; in assay [2], 826 µM (inactive); in assay [3], 933 µM (inactive); in [4] it was 440 µM (inactive); in assay [5] it was > 1000 µM (inactive); in assay [6], > 1000 µM (inactive). For the same compound, the GI50 in [20], in [7], in [8], in assay [9], in assay [10] and in assay [11] was > 1000 µM (inactive) in each case. Besides, the GI50 in assay [12], in assay [13], in assay [14], in assay [15], in assay [16] and in assay [17] was > 1000 µM (inactive) each time.

With `CC(CC[C@@]1(C)C(=O)CCC2O[C@]21C)[C@H]1C[C@@H](c2ccoc2)OC1=O` (stereo not given in full), the GI50 in assay [1] is 35.7 µM; in [2], 44.1 µM (inactive); in assay [3] it was 95.9 µM (inactive); in assay [4], 19.8 µM (inactive); in assay [5], > 100 µM (inactive); in [6] it was 74.5 µM (inactive). Also, the GI50 in [7] is > 100 µM (inactive); in assay [8], 26.9 µM (inactive); in assay [10], > 100 µM (inactive); in assay [11] it was 31 µM (inactive); in assay [12] it was 72.9 µM (inactive); in assay [13] it was 57.9 µM (inactive). In addition, the GI50 in assay [14] is 65.6 µM (inactive); in [15], 35.9 µM (inactive); in assay [16], 31.5 µM (inactive); in assay [17], 27.8 µM (inactive); in assay [18] it was 17.2 µM (inactive); in [19] it was 28.4 µM (inactive).
